In patent US20260028354A1, “TETRAHYDRONAPHTHALENE DERIVATIVES AS ESTROGEN RECEPTOR DEGRADERS” (REGENT OF THE UNIVERSITY OF MICHIGAN, priority 2022, published 2026):
Read-outs that look alike come from different tables or passages of the source.

Assays:
[1] = target: ER (Homo sapiens (Human), UniProt P03372); test: In-cell western blot analysis of ER for "B" compounds; assay type: cell-based; conditions: 16 hours, read-out: ICW DC50
In short: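 ER levels given as a percentage of untreated/DMSO-treated wells (100%). Detection used primary antibodies for 2 h at room temperature followed by 680 and 800 nm fluorescent secondaries at 1:1000 for 1 h, read by LI-COR imaging.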

[2] = Cell growth assay (WST-8) for "B" compounds; assay type: cell-based; conditions: T47D, read-out: Cell growth Inhibition in T47D cell line IC50
In short: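 Four-day compound exposure of cells plated at 1500/well the day before. Read-out is WST-8 (10%, 2.5 h, 37 °C) absorbance at 450 nm, normalized to vehicle control over three independent repeats.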

ER, sequence (P03372 whole entry): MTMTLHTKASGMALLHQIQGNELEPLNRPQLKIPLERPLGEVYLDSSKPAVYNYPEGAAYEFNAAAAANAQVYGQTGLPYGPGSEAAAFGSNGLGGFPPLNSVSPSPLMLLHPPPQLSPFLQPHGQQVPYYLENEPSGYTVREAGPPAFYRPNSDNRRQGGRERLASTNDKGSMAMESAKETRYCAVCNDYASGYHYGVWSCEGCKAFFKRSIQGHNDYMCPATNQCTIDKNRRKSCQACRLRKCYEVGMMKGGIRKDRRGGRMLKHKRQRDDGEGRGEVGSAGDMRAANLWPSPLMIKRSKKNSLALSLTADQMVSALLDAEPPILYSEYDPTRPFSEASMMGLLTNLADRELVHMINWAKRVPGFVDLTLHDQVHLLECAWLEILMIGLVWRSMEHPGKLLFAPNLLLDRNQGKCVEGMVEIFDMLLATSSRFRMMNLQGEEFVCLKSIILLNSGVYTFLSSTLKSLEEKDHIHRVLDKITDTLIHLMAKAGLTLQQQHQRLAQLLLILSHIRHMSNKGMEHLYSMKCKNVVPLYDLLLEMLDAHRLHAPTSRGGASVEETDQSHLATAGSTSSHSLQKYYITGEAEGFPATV

## O=C1CCC(N2Cc3cc4c(cc3C2=O)OC[C@@H]2CN(CC3COC5(CCN(c6ccc([C@@H]7c8ccc(O)cc8CC[C@@H]7c7ccccc7)cc6)CC5)OC3)CCN42)C(=O)N1 (stereo partly drawn) [Compound B242, 3-((S)-3-((9-(4-((1R,2S)-6-hydroxy-2-phenyl-1,2,3,4-tetrahydronaphthalen-1-yl)phenyl)-1,5-dioxa-9-azaspiro[5.5]undecan-3-yl)methyl)-8-oxo-1,2,3,4,4a,5,8,10-octahydro-9H-pyrazino[1′,2′:4,5][1,4]oxazino[2,3-f]isoindol-9-yl)piperidine-2,6-dione]
[1]
  DC50: < 10 nM
[2]; T47D cell line
  IC50: < 1 nM

## O=C1CCC(N2Cc3c(ccc4c3N3CCN(CC5CCN(c6ccc([C@@H]7c8ccc(O)cc8CC[C@@H]7c7ccccc7)cc6)CC5)C[C@H]3CO4)C2=O)C(=O)N1 (stereo partly drawn) [Compound B243, 3-((S)-9-((1-(4-((1R,2S)-6-hydroxy-2-phenyl-1,2,3,4-tetrahydronaphthalen-1-yl)phenyl)piperidin-4-yl)methyl)-3-oxo-1,3,7,7a,8,9,10,11-octahydro-2H-pyrazino[1′,2′:4,5][1,4]oxazino[3,2-e]isoindol-2-yl)piperidine-2,6-dione]
[1]
  DC50: 10 to 100 nM
[2]; T47D cell line
  IC50: 1 to 10 nM

## O=C1CCC(N2Cc3c(ccc4c3OC[C@H]3CN(C(=O)CN5CC(Oc6ccc([C@@H]7c8ccc(O)cc8CC[C@@H]7c7ccccc7)cc6)C5)CCN43)C2=O)C(=O)N1 (stereo partly drawn) [Compound B245, 3-((R)-7-(2-(3-(4-((1R,2S)-6-hydroxy-2-phenyl-1,2,3,4-tetrahydronaphthalen-1-yl)phenoxy)azetidin-1-yl)acetyl)-1-oxo-1,3,5,5a,6,7,8,9-octahydro-2H-pyrazino[1′,2′:4,5][1,4]oxazino[2,3-e]isoindol-2-yl)piperidine-2,6-dione]
[1]
  DC50: 10 to 100 nM
[2]; T47D cell line
  IC50: < 1 nM

## O=C1CCC(N2Cc3c(ccc4c3OC[C@H]3CN(CC(=O)N5CC(Oc6ccc([C@@H]7c8ccc(O)cc8CC[C@@H]7c7ccccc7)cc6)C5)CCN43)C2=O)C(=O)N1 (some centres unmarked) [Compound B246]
[1]
  DC50: < 10 nM
[2]; T47D cell line
  IC50: < 1 nM

## O=C1CCC(N2Cc3c(ccc4c3OC[C@@H]3CN(C(=O)CN5CC(Oc6ccc([C@@H]7c8ccc(O)cc8CC[C@@H]7c7ccccc7)cc6)C5)CCN43)C2=O)C(=O)N1 (stereo partly drawn) [Compound B248, 3-((S)-7-(2-(3-(4-((1R,2S)-6-hydroxy-2-phenyl-1,2,3,4-tetrahydronaphthalen-1-yl)phenoxy)azetidin-1-yl)acetyl)-1-oxo-1,3,5,5a,6,7,8,9-octahydro-2H-pyrazino[1′,2′:4,5][1,4]oxazino[2,3-e]isoindol-2-yl)piperidine-2,6-dione]
[1]
  DC50: 10 to 100 nM
[2]; T47D cell line
  IC50: < 1 nM

## O=C1CCC(N2Cc3c(ccc4c3OC[C@H]3CN(C(=O)CN5CC(Nc6ccc([C@@H]7c8ccc(O)cc8CC[C@@H]7c7ccccc7)cc6)C5)CCN43)C2=O)C(=O)N1 (stereo partly drawn) [Compound B250, 3-((R)-7-(2-(3-((4-((1R,2S)-6-hydroxy-2-phenyl-1,2,3,4-tetrahydronaphthalen-1-yl)phenyl)amino)azetidin-1-yl)acetyl)-1-oxo-1,3,5,5a,6,7,8,9-octahydro-2H-pyrazino[1′,2′:4,5][1,4]oxazino[2,3-e]isoindol-2-yl)piperidine-2,6-dione]
[1]
  DC50: 10 to 100 nM
[2]; T47D cell line
  IC50: < 1 nM

## CN(C(=O)c1ccc2c(c1)OC[C@H]1CN(CC3CCN(c4ccc([C@@H]5c6ccc(O)cc6CC[C@@H]5c5ccccc5)cc4)CC3)CCN21)C1CCC(=O)NC1=O (stereo partly drawn) [Compound B255, (4aR)-N-(2,6-dioxopiperidin-3-yl)-3-((1-(4-((1R,2S)-6-hydroxy-2-phenyl-1,2,3,4-tetrahydronaphthalen-1-yl)phenyl)piperidin-4-yl)methyl)-N-methyl-1,2,3,4,4a,5-hexahydrobenzo[b]pyrazino[1,2-d][1,4]oxazine-8-carboxamide]
[1]
  DC50: 10 to 100 nM
[2]; T47D cell line
  IC50: 1 to 10 nM

## O=C1CC[C@H](NC(=O)c2ccc3c(c2)OC[C@H]2CN(CC4CCN(c5ccc([C@@H]6c7ccc(O)cc7CC[C@@H]6c6ccccc6)cc5)CC4)CCN32)C(=O)N1 [Compound B256, (R)-N-((S)-2,6-dioxopiperidin-3-yl)-3-((1-(4-((1R,2S)-6-hydroxy-2-phenyl-1,2,3,4-tetrahydronaphthalen-1-yl)phenyl)piperidin-4-yl)methyl)-1,2,3,4,4a,5-hexahydrobenzo[b]pyrazino[1,2-d][1,4]oxazine-8-carboxamide]
[1]
  DC50: 10 to 100 nM
[2]; T47D cell line
  IC50: 1 to 10 nM

## O=C1CC[C@H](NC(=O)c2ccc3c(c2)OC[C@@H]2CN(CC4CCN(c5ccc([C@@H]6c7ccc(O)cc7CC[C@@H]6c6ccccc6)cc5)CC4)CCN32)C(=O)N1 [Compound B257, (S)-N-((S)-2,6-dioxopiperidin-3-yl)-3-((1-(4-((1R,2S)-6-hydroxy-2-phenyl-1,2,3,4-tetrahydronaphthalen-1-yl)phenyl)piperidin-4-yl)methyl)-1,2,3,4,4a,5-hexahydrobenzo[b]pyrazino[1,2-d][1,4]oxazine-8-carboxamide]
[1]
  DC50: > 100 nM
[2]; T47D cell line
  IC50: 1 to 10 nM

## O=C1CCC(N2Cc3c(ccc4c3OCC43CCN(CC4CCN(c5ccc([C@@H]6c7ccc(O)cc7CC[C@@H]6c6ccccc6)cc5)CC4)CC3)C2=O)C(=O)N1 (stereo partly drawn) [Compound B258, 3-(1′-((1-(4-((1R,2S)-6-hydroxy-2-phenyl-1,2,3,4-tetrahydronaphthalen-1-yl)phenyl)piperidin-4-yl)methyl)-6-oxo-6,8-dihydro-2H,7H-spiro[furo[2,3-e]isoindole-3,4′-piperidin]-7-yl)piperidine-2,6-dione]
[1]
  DC50: 10 to 100 nM
[2]
  IC50: < 1 nM

## O=C1CCC(N2Cc3c(ccc4c3OC[C@@H]3CN(CC5CCN(c6ccc([C@@H]7c8ccc(O)cc8CC[C@@H]7c7ccccc7)cc6)CC5)CCN43)C2=O)C(=O)N1 (stereo partly drawn) [Compound B306, 3-((S)-7-((1-(4-((1R,2S)-6-hydroxy-2-phenyl-1,2,3,4-tetrahydronaphthalen-1-yl)phenyl)piperidin-4-yl)methyl)-1-oxo-1,3,5,5a,6,7,8,9-octahydro-2H-pyrazino[1′,2′:4,5][1,4]oxazino[2,3-e]isoindol-2-yl)piperidine-2,6-dione]
[1]
  DC50: > 100 nM
[2]; T47D cell line
  IC50: < 1 nM

## O=C1CCC(N2Cc3cc4c(cc3C2=O)OC[C@@H]2C[C@H](NCC3CCN(c5ccc([C@@H]6c7ccc(O)cc7CC[C@@H]6c6ccccc6)cc5)CC3)CN42)C(=O)N1 (stereo partly drawn) [Compound B307, 3-((2S,3aS)-2-(((1-(4-((1R,2S)-6-hydroxy-2-phenyl-1,2,3,4-tetrahydronaphthalen-1-yl)phenyl)piperidin-4-yl)methyl)amino)-7-oxo-2,3,3a,4,7,9-hexahydro-1H,8H-pyrrolo[1′,2′:4,5][1,4]oxazino[2,3-f]isoindol-8-yl)piperidine-2,6-dione]
[1]
  DC50: > 100 nM
[2]; T47D cell line
  IC50: 1 to 10 nM

## CN(CC1CCN(c2ccc([C@@H]3c4ccc(O)cc4CC[C@@H]3c3ccccc3)cc2)CC1)[C@H]1C[C@H]2COc3cc4c(cc3N2C1)CN(C1CCC(=O)NC1=O)C4=O (stereo partly drawn) [Compound B310, 3-((2S,3aS)-2-(((1-(4-((1R,2S)-6-hydroxy-2-phenyl-1,2,3,4-tetrahydronaphthalen-1-yl)phenyl)piperidin-4-yl)methyl)(methyl)amino)-7-oxo-2,3,3a,4,7,9-hexahydro-1H,8H-pyrrolo[1′,2′:4,5][1,4]oxazino[2,3-f]isoindol-8-yl)piperidine-2,6-dione]
[1]
  DC50: > 100 nM
[2]; T47D cell line
  IC50: < 1 nM
